{"source": "paper PMC6395383", "about": "“Participation of Gαi-Adenylate Cyclase and ERK1/2 in Mas Receptor Signaling Pathways” (Frontiers in Pharmacology, 2019)", "key": {"[1]": {"system": "MasR", "parameters": "method as in 2 sources, one per row (each row's own in cited_ref): ref Bikkavilli et al., 2006; Shemesh et al., 2008; Zhang et al., 2012; Tirupula et al., 2014 ||| ref Dong et al., 2001", "details": "ref Dong et al., 2001; cited from earlier work"}, "[2]": {"system": "renal AT1R", "details": "pM range; reference not clearly printed; cited from earlier work", "source_text": "(§1) The analysis of the interaction between Ang-(1–7) and the AT1R originated discrepancies. […] In addition, [Teixeira et al. (2017)] by performing competition binding assays using ..."}, "[3]": {"system": "AT1R", "details": "CHO-K1 cells; ref Kostenis et al., 2005; cited from earlier work", "source_text": "The modulation of the activity of ERK1/2 by Ang-(1–7) has been analyzed previously. […] Participation of the M ..."}, "[4]": {"system": "MrgD receptor", "details": "ref Tetzner et al., 2016; cited from earlier work", "source_text": "(§2) The reasons for this discrepancy could rely on the different approaches used to detect the cAMP levels. We desig ..."}, "[5]": {"system": "Mas receptor", "details": "ref Tetzner et al., 2016; cited from earlier work", "source_text": "as §2"}, "[6]": {"system": "AT1R mRNA", "assay": "AT1R mRNA by qPCR after siRNA transfection of HEK293T cells", "type": "cell-based, human", "details": "siRNA 100 nM, 48 h after transfection, β-Actin, three independent experiments", "protocol": "HEK293T (human embryonic kidney) and A549 (human lung carcinoma) cells were cultured in Dulbecco’s modified Eagle’s medium (DMEM) supplemented with 10% fetal calf serum and 50 μg/ml gentamicin. Cultures were maintained at 37°C in humidified atmosphere containing 5% CO2. For transient transfections, cells were grown to 80–90% confluency and the cDNA constructs were transfected using the K2 Transfection System (Biontex, Munich, Germany). The transfection protocol was optimized as recommended by the suppliers. Assays were performed 48 h after transfection. […]\nTotal RNA was isolated from wild type or transfected HEK293T cells using Quick-Zol reagent (Kalium Technologies, Bernal, Argentina) following the manufacturer’s instructions. […] Quantitative real-time PCR (qPCR) was performed in triplicate on the Rotor Gene Q cycler (Qiagen, Hilden, Germany) using the resulting cDNA, the HOT FIREPol EvaGreen qPCR Mix Plus (Solis BioDyne, Tartu, Estonia) for product detection, and the following primers: human MasR (NM_002377.2) forward, 5′-[…] -3′ and reverse 5′-[…]-3′; human AT1R (M93394.1) forward, 5′-[…]-3′ and reverse, 5′-[…]-3′; human AT2R (NM_000686.4) forward, 5′-[…]-3′ and reverse 5′-[…]-3′; and human β-Actin forward, 5′-[…]-3′ and reverse 5′-[…]-3′. […]"}, "[7]": {"system": "rat proximal straight tubule", "details": "against 10^-12 and 10^-8 M Ang-(1–7); ref Garcia and Garvin (1994); cited from earlier work", "source_text": "as §1"}, "[8]": {"biological_target": "AT1R (Homo sapiens) (UniProt P30556)", "sequence (P30556 whole entry)": "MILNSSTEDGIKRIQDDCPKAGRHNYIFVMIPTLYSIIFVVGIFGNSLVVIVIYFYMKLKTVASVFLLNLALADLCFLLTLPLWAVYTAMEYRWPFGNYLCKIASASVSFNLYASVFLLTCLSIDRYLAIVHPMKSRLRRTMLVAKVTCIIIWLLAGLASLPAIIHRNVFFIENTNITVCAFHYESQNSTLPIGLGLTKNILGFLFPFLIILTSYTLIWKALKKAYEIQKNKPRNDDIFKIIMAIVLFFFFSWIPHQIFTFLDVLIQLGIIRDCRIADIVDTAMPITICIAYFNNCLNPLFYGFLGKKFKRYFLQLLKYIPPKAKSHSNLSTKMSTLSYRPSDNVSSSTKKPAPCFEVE", "assay": "competition binding with 3H-Ang II", "details": "cited from earlier work"}, "[9]": {"biological_target": "AT1R (Homo sapiens) (UniProt P30556)", "assay": "competition binding", "details": "cited from earlier work"}, "[10]": {"system": "heart", "details": "orally active; ref Ferreira et al., 2007; cited from earlier work", "source_text": "The physiological relevance of the constitutive activity of the MasR remains to be determined. Constitutive activity of GPCRs for various neurotransmitters contributes to basal neuronal activity ([Seifert and Wenzel-Seifert, 2002]). The mRNA encoding the MasR has been detected in various regions of the rat and mouse brain ([Young et al., 1988]; [Bunnemann et al., 1990]; [Martin et al., 1992]; [Metzger et al., 1995]). In addition, it has been reported that MasR-KO mice have alterations of the CNS ([Walther et al., 1998], [2000a],[b]). Thus, the constitutive activity of the MasR could play a reg ..."}, "[11]": {"system": "MasR", "parameters": "method as in Gaidarov et al. (2018)", "details": "30 min forskolin pre-incubation, 60 min with ligand; ref Gaidarov et al. (2018); cited from earlier work"}, "[12]": {"biological_target": "T1, human MasR (Homo sapiens, UniProt P04201)", "T1 construct": "host or cells: HEK293T, transient transfection", "T1 sequence (P04201 1-325)": "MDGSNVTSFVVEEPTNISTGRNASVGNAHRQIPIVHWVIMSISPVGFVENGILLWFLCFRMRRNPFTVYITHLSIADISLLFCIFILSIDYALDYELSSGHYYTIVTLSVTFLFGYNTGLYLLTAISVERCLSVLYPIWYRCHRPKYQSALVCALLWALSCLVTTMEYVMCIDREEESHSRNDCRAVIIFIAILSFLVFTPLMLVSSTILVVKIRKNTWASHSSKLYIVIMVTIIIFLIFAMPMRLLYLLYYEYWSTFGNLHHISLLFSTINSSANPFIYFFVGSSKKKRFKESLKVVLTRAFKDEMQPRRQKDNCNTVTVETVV", "assay": "cAMP accumulation, forskolin-stimulated, in MasR-transfected HEK293T cells (competition of [^3H]cAMP for PKA)", "type": "cell-based", "details": "1 mM IBMX", "quoted_text": "A pcDNA3.1(+)-myc-MasR expression construct corresponding to the human MasR (accession number: NM_002377.2) fused to the c-myc tag peptide at N-terminal was acquired from Life Technologies (Grand Island, NY, United States). An empty vector [pcDNA 3.1 (+)] was used both as negative control and to deliver an equal amount of plasmid per transfection in all the experiments.\nCultures were maintained at 37°C in humidified atmosphere containing 5% CO2. For transient transfections, cells were grown to 80–90% confluency and the cDNA constructs were transfected using the K2 Transfection System (Biontex, Munich, Germany). The transfection protocol was optimized as recommended by the suppliers. Assays were performed 48 h after transfection. […] The transfection protocol was optimized as recommended by the suppliers. Assays were performed 48 h after transfection.\nFor determination of cAMP basal levels, transfected cells were seeded in 12 wells dishes, 24 h later 100% confluent cells were starved for 2 h and pretreated, when indicated, for 1 h with pertussis toxin (100 ng/ml) and incubated later for 30 min in basal culture medium supplemented with 1 mM IBMX at 37°C. […] The ethanol phase was then dried, and the residue resuspended in 50 mM Tris-HCl pH 7.4, 0.1% BSA. cAMP content was determined by competition of [^3H]cAMP for PKA, as previously described ([Davio et al., 1995])."}, "[13]": {"system": "HEK293T cells", "assay": "cAMP accumulation, forskolin-stimulated, in empty-vector (pcDNA 3.1) HEK293T cells", "type": "cell-based, human", "details": "HEK293T transfected with empty vector; 1 mM IBMX, 1 μM forskolin; ligand 5 min; three independent experiments", "quoted_text": "For time-course assays, transfected cells were seeded in 24 wells dishes and after 24 h, 100% confluent cells were starved for 2 h and incubated 5 min in basal culture medium supplemented with 1 mM IBMX at 37°C, followed by exposure to 1 μM forskolin for 5, 10, 15, 30, or 60 min. In concentration response assays, transfected cells were seeded in 24 wells dishes after 24 h, 100% confluent cells were starved for 2 h and incubated 5 min in basal culture medium supplemented with 1 mM IBMX at 37°C, followed by 10 min exposure to 1 μM forskolin to increase basal cAMP levels, and incubated for 5 min with indicated concentrations of Ang-(1–7) or AVE 0991. For all cAMP determinations, the reactions were stopped by ethanol addition followed by centrifugation at 2,000 g for 10 min. The ethanol phase was then dried, and the residue resuspended in 50 mM Tris-HCl pH 7.4, 0.1% BSA. cAMP content was determined by competition of [^3H]cAMP for PKA, as previously described ([Davio et al., 1995])."}, "[14]": {"system": "A549 cells", "assay": "Intracellular Ca^2+ (Fura-2AM) in A549 cells with endogenous MasR", "type": "cell-based, human", "details": "histamine 10^-4 M, 340/380 ratio, 180 s, representative of three independent experiments", "quoted_text": "Changes in intracellular Ca^2+ concentration were measured using fura-2 acetoxymethyl ester (Fura-2AM) fluorescent indicator. A549 cells were seeded in 96 wells dishes for 24 h (90–100% confluence). […] Fluorescence was measured in a FlexStation 3 microplate reader (Molecular Devices Inc., San Jose, CA, United States). […] After 30 s of initial recording to determine basal levels, 100 nM Ang (1–7) or 100 μM histamine was added in 100 μl final volumes, and the time course of intracellular Ca^2+ mobilization was recorded for 180 s. […] Autofluorescence was quantified by measuring the fluorescence produced by an equivalent suspension of not-loaded cells. Results were expressed as the ratio of fluorescence’s 340/380 over basal. Basal levels were determined as the media of the recorded measurements in the first 30 s for each well."}, "[15]": {"system": "MasR (A549 cells)", "assay": "Intracellular Ca^2+ (Fura-2AM) in A549 cells transfected with pcDNA 3.1/myc-MasR", "type": "cell-based, human", "details": "histamine 10^-4 M, same conditions (Figure 3E,F: empty vector or MasR)", "quoted_text": "An empty vector [pcDNA 3.1 (+)] was used both as negative control and to deliver an equal amount of plasmid per transfection in all the experiments.\nChanges in intracellular Ca^2+ concentration were measured using fura-2 acetoxymethyl ester (Fura-2AM) fluorescent indicator. […] Fluorescence was measured in a FlexStation 3 microplate reader (Molecular Devices Inc., San Jose, CA, United States). […] After 30 s of initial recording to determine basal levels, 100 nM Ang (1–7) or 100 μM histamine was added in 100 μl final volumes, and the time course of intracellular Ca^2+ mobilization was recorded for 180 s. […] Autofluorescence was quantified by measuring the fluorescence produced by an equivalent suspension of not-loaded cells. Results were expressed as the ratio of fluorescence’s 340/380 over basal. […]"}}, "note": "Where a name gives a salt, the structure may show the parent alone. No end group written: not given here."}
{"molecule": "NPFF: neuropeptide FF (FLFQPQRF; ends and bridges not checked; UniProt O15130 69-76, looked up)", "values": [{"measurement": "conventional G protein signaling, NPFF", "setting": "[1]", "result": "conventional G protein signaling has been reported"}]}
{"molecule": "Ang II: angiotensin II, of the classical RAS axis (DRVYIHPF; Angiotensin-2; UniProt P01019 25-32, looked up)", "values": [{"measurement": "affinity of renal AT1R on proximal tubules", "setting": "[2]", "result": "very high affinity for Ang II (in the pM range)"}, {"measurement": "Ang II-induced IP1 production and Ca^2+ increase on MasR/AT1R coexpression", "setting": "[3]", "result": "significantly decreased both the Ang II-induced production of IP1 and the increase of intracellular Ca^2+ levels mediated by the AT1R"}]}
{"molecule": "D-Pro7-Ang-(1–7)", "values": [{"measurement": "antagonism of Ang-(1–7)-induced cAMP increase, HEK293 overexpressing MrgD", "setting": "[4]", "result": "blocked"}, {"measurement": "antagonism of Ang-(1–7)-induced cAMP increase, HEK293 overexpressing Mas", "setting": "[5]", "result": "blocked"}]}
{"molecule": "AT1R siRNA: human AT1R siRNA (AUACGUGACUGUAGAAUUG) (chemistry not given here)", "values": [{"measurement": "reduction of AT1R mRNA levels versus scrambled siRNA", "setting": "[6]", "result": "~50", "unit": "%"}]}
{"molecule": "D-Ala7-Ang-(1–7)", "values": [{"measurement": "antagonism of Ang-(1–7)-induced cAMP increase, HEK293 overexpressing MrgD", "setting": "[4]", "result": "blocked"}, {"measurement": "antagonism of Ang-(1–7)-induced cAMP increase, HEK293 overexpressing Mas", "setting": "[5]", "result": "blocked"}]}
{"molecule": "CCCCc1nc(Cl)c(CO)n1Cc1ccc(-c2ccccc2-c2nn[nH]n2)cc1", "note": "[losartan]", "values": [{"measurement": "block of Ang-(1–7) effects on absorption", "setting": "[7]", "result": "both effects were blocked by losartan"}]}
{"molecule": "Angiotensin-(1-7) (from UniProt P01019)", "values": [{"measurement": "Ki", "setting": "[8]", "result": 200, "unit": "nM"}, {"measurement": "Ki", "setting": "[9]", "result": 360, "unit": "nM"}]}
{"molecule": "CCNC(=O)NS(=O)(=O)c1sc(CC(C)C)cc1-c1ccc(Cn2c(-c3ccccc3)nc(OC)c2C=O)cc1", "note": "[AVE 0991, 5-formyl-4-methoxy-2-phenyl-1-[[4-[2-ethylaminocarbonylsulfonamido-5-isobutil-3-thienyl]phenyl]-methyl]imidazole]", "values": [{"measurement": "heart dysfunction, AVE 0991", "setting": "[10]", "result": "beneficial effects obtained in heart dysfunction"}, {"measurement": "forskolin-stimulated cAMP levels in MasR-transfected HEK293 cells", "setting": "[11]", "result": "no change in forskolin-stimulated cAMP levels"}, {"measurement": "modulation of cAMP levels", "setting": "[12]; HEK293T overexpressing MasR, 1 μM forskolin, ligand 5 min", "result": "concentration-dependent decrease in the production of cAMP"}, {"measurement": "pEC50, concentration-dependent decrease in the production of cAMP", "setting": "[12]; HEK293T transfected with pcDNA3.1/c-myc-MasR, 10 min 1 μM forskolin, then 5 min ligand, 37°C, mean ± SEM of three independent experiments", "result": "7.75 ± 0.40"}, {"measurement": "modulation of cAMP levels, empty vector", "setting": "[13]", "result": "did not alter cAMP levels"}]}
{"molecule": "NCCc1c[nH]cn1", "note": "[histamine, histamine dihydrochloride]", "values": [{"measurement": "intracellular Ca^2+ levels, A549 cells (endogenous MasR), positive control", "setting": "[14]", "result": "significant increase in cytosolic Ca^2+ levels"}, {"measurement": "intracellular Ca^2+ levels, transfected A549 cells, positive control", "setting": "[15]", "result": "important increase in Ca^2+ levels"}]}
